Assay results reported in ChEMBL document CHEMBL4814027, “Synthesis and biological evaluation of naphthoquinone phenacylimidazolium derivatives” (Bioorg Med Chem Lett, 2021).
pIC50: −log10 of the molar value.

Key:
[1] = test system: MCF7; assay: Cytotoxicity against human MCF7 cells by MTT assay; assay type: functional, cell-based
[2] = test system: HeLa; assay: Cytotoxicity against human HeLa cells by MTT assay; assay type: functional, cell-based
[3] = test system: A549; assay: Cytotoxicity against human A549 cells by MTT assay
[4] = test system: L929; assay: Cytotoxicity against mouse L929 cells by MTT assay
[5] = Selectivity ratio of IC50 for mouse L929 cells to IC50 for human MCF7 cells; assay type: toxicity; conditions: L929 cells versus MCF7 cells, read-out: Ratio IC50
[6] = Selectivity ratio of IC50 for mouse L929 cells to IC50 for human HeLa cells; assay type: toxicity; conditions: L929 cells versus HeLa cells, read-out: Ratio IC50
[7] = Selectivity ratio of IC50 for mouse L929 cells to IC50 for human A549 cells; assay type: toxicity; conditions: L929 cells versus A549 cells, read-out: Ratio IC50

Structure (SMILES) | pIC50 [1] | pIC50 [2] | pIC50 [3] | pIC50 [4] | selectivity ratio [5] | selectivity ratio [6] | selectivity ratio [7]
O=C(C[n+]1cn(-c2ccccc2)c2c1C(=O)c1ccccc1C2=O)c1ccc([N+](=O)[O-])cc1 | 4.23 | 4.69 | 4.39 | 4.51 | 0.52 | 1.53 | 0.77
CC(C)Cn1c[n+](CC(=O)c2ccc(Br)cc2)c2c1C(=O)c1ccccc1C2=O | 6.16 | 5.57 | 5.62 | 4.81 | 22.5 | 5.74 | 6.46
O=C(C[n+]1cn(C2CC2)c2c1C(=O)c1ccccc1C2=O)c1ccc([N+](=O)[O-])cc1 | 4.22 | 4.65 | 4.91 | 5.21 | 0.1 | 0.27 | 0.5
Cn1c[n+](CC(=O)c2ccc(C(F)(F)F)cc2)c2c1C(=O)c1ccccc1C2=O | 5.13 | 5.04 | 5.89 | 4.71 | 2.61 | 2.1 | 14.9
Cn1c[n+](CC(=O)c2ccco2)c2c1C(=O)c1ccccc1C2=O | 5.85 | 5.31 | 7.00 | 4.87 | 9.71 | 2.78 | 136
CC(C)Cn1c[n+](CC(=O)c2ccc(Cl)cc2)c2c1C(=O)c1ccccc1C2=O | 6.18 | 5.42 | 5.48 | 5.03 | 14.2 | 2.47 | 2.85
Cn1c[n+](CC(=O)c2ccc3ccccc3c2)c2c1C(=O)c1ccccc1C2=O | 4.98 | 5.21 | 5.85 | 4.72 | 1.81 | 3.11 | 13.6
Cn1c[n+](CC(=O)c2ccc([N+](=O)[O-])cc2)c2c1C(=O)c1ccccc1C2=O | 4.92 | 5.00 | 5.44 | 4.27 | 4.39 | 5.26 | 14.8
Cc1ccc(C(=O)C[n+]2cn(C)c3c2C(=O)c2ccccc2C3=O)cc1 | 6.22 | 5.46 | 6.80 | 4.83 | 24.5 | 4.2 | 91.9
Cn1c[n+](CC(=O)c2ccc(F)cc2)c2c1C(=O)c1ccccc1C2=O | 6.47 | 5.51 | 5.82 | 4.74 | 53.5 | 5.87 | 12.1
Cn1c[n+](CC(=O)c2cccs2)c2c1C(=O)c1ccccc1C2=O | 6.03 | 5.15 | 6.52 | 4.64 | 24.4 | 3.27 | 76.3
CC(C)Cn1c[n+](CC(=O)c2ccccc2)c2c1C(=O)c1ccccc1C2=O | 6.28 | 6.05 | 6.49 | 5.57 | 5.19 | 3 | 8.44
C#CCn1c[n+](CC(=O)c2ccc([N+](=O)[O-])cc2)c2c1C(=O)c1ccccc1C2=O | 4.39 | 4.76 | 4.82 | 4.72 | 0.46 | 1.1 | 1.26
CC(C)Cn1c[n+](CC(=O)c2ccc(C(F)(F)F)cc2)c2c1C(=O)c1ccccc1C2=O | 5.12 | 5.04 | 5.11 | 4.58 | 3.46 | 2.86 | 3.37
Cn1c[n+](CC(=O)c2ccc(Cl)cc2)c2c1C(=O)c1ccccc1C2=O | 5.31 | 5.18 | 6.00 | 4.85 | 2.9 | 2.15 | 14.2
